Measured values: PubChem BioAssay AID1259408 (Genetic Toxicology Data Bank (GENE-TOX), 2018)
Activity calls are given as the source filed them. No rule for the calls is given here.

System: GENE-TOX genotoxicity assays, various organisms and cells
Assay: GENE-TOX mutagenicity studies
Settings: for call: Assay Type: In vivo carcinogenicity studies
[1] = Species/Cell Type: Bacillus subtilis (H17 vs M45), Assay Type: Rec-assay, spot test, DNA effects (bacterial DNA repair), Assay Code: REW+, Evaluation Type: Evaluation A (Pre-1980)
[2] = Species/Cell Type: Saccharomyces cerevisiae, Assay Type: Mitotic recombination or gene conversion, Assay Code: YEH-, Evaluation Type: Evaluation A (Pre-1980)
[3] = Species/Cell Type: Salmonella typhimurium (one or more of the five standard strains: TA98, TA100, TA1535, TA1537, and TA1538), Assay Type: Histidine reverse gene mutation, Ames assay, Assay Code: SALT, Evaluation Type: Evaluation A (Pre-1980)
[4] = Species/Cell Type: Salmonella typhimurium (one or more of the five standard strains: TA98, TA100, TA1535, TA1537, and TA1538), Assay Type: Histidine reverse gene mutation, Ames assay, Assay Code: SAL+*, Activation: With metabolic activation, Evaluation Type: Evaluation A (Pre-1980)
[5] = Species/Cell Type: Mouse (BALB/c-3T3) cells, Assay Type: Cell transformation, Assay Code: CTB-, Evaluation Type: Evaluation A (Pre-1980)
[6] = Species/Cell Type: Syrian hamster embryo (SHE) cells, Assay Type: Cell transformation, clonal assay, Assay Code: CTC+, Evaluation Type: Evaluation A (Pre-1980)
[7] = Species/Cell Type: Salmonella typhimurium (one or more of the five standard strains: TA98, TA100, TA1535, TA1537, and TA1538), Assay Type: Histidine reverse gene mutation, Ames assay, Assay Code: SAL+, Evaluation Type: Evaluation A (Pre-1980)
[8] = Species/Cell Type: Drosophila melanogaster, Assay Type: Sex-linked recessive lethal gene mutation, Assay Code: SRL+, Evaluation Type: Evaluation A (Pre-1980)
[9] = Species/Cell Type: Bacillus subtilis (H17 vs M45), Assay Type: Rec-assay, spot test, DNA effects (bacterial DNA repair), Assay Code: REW-, Evaluation Type: Evaluation A (Pre-1980)
[10] = Species/Cell Type: Fischer rat embryo (RLV/1706) cells, Assay Type: Cell transformation, viral enhanced, Assay Code: CTR+, Evaluation Type: Evaluation A (Pre-1980)

With `CN(C)c1ccc(C(=C2C=CC(=[N+](C)C)C=C2)c2ccc(N(C)C)cc2)cc1` the mutagenic call [1] was “active; positive”, the mutagenic call (Species/Cell Type: Bacillus subtilis (H17 vs M45T), Assay Type: Rec-assay, spot test, DNA effects (bacterial DNA repair), Assay Code: REXT, Evaluation Type: Evaluation A (Pre-1980)) was “no conclusion” and the mutagenic call (Species/Cell Type: Drosophila melanogaster, Assay Type: Sex-linked recessive lethal gene mutation, Assay Code: SRLT, Evaluation Type: Evaluation A (Pre-1980)) was “no conclusion”. For the same compound, the mutagenic call [2] was “inactive; negative” and the mutagenic call [3] was “no conclusion”.

For `CNO`, the mutagenic call (Species/Cell Type: Neurospora crassa, Assay Type: Reverse gene mutation, Assay Code: NER+, Evaluation Type: Evaluation A (Pre-1980)) was “active; positive”.

With `[C-]#[N+]C(=C\c1ccc(O)cc1)/C(=C/c1ccc(O)cc1)[N+]#[C-]` the mutagenic call (Species/Cell Type: Bacillus subtilis (H17 vs M45), Assay Type: Rec-assay, spot test, DNA effects (bacterial DNA repair), Assay Code: REWT, Evaluation Type: Evaluation A (Pre-1980)) was “no conclusion”.

In the case of `Cc1ccc2ccc3cc4ccccc4cc3c2c1`, the mutagenic call (Species/Cell Type: Nonhuman, Assay Type: Sister-chromatid exchange (SCE) in vitro, Assay Code: SC2+D, Dose Response: With dose response, Evaluation Type: Evaluation B (Post-1980)) is reported as “active; positive” and the mutagenic call [4] is reported as “active; positive”.

`CCN(N=O)c1ccccc1` was tested, and the mutagenic call (Species/Cell Type: Fischer rat embryo (RLV/1706) cells, Assay Type: Cell transformation, viral enhanced, Assay Code: CTR-, Evaluation Type: Evaluation A (Pre-1980)) was “inactive; negative”, the mutagenic call [5] was “inactive; negative” and the mutagenic call [6] was “active; positive”.

In the case of `CC(=O)c1ccccc1`, the mutagenic call (Species/Cell Type: Escherichia coli polA (W3110 vs P3478), Assay Type: Rec-assay, DNA effects (bacterial DNA repair), Assay Code: RE2-, Evaluation Type: Evaluation A (Pre-1980)) is reported as “inactive; negative” and the mutagenic call (Species/Cell Type: Escherichia coli polA (W3119 vs P3478), Assay Type: Rec-assay, DNA effects (bacterial DNA repair), Assay Code: RE1-, Evaluation Type: Evaluation A (Pre-1980)) is reported as “inactive; negative”.

With `Nc1ccc(-c2ccc(F)cc2)cc1` the mutagenic call (Species/Cell Type: Mouse embryo (AKR/ME) cells, Assay Type: Cell transformation, Assay Code: CTK+, Evaluation Type: Evaluation A (Pre-1980)) was “active; positive”.

`O=[N+]([O-])c1ccc(F)c([N+](=O)[O-])c1` was tested, and the mutagenic call (Species/Cell Type: Escherichia coli polA (W3119 vs P3478), Assay Type: Rec-assay, DNA effects (bacterial DNA repair), Assay Code: RE1+, Evaluation Type: Evaluation A (Pre-1980)) was “active; positive”, the mutagenic call (Species/Cell Type: Nonhuman, Assay Type: Sister-chromatid exchange (SCE) in vitro, Assay Code: SC2-, Evaluation Type: Evaluation B (Post-1980)) was “inactive; negative” and the mutagenic call (Species/Cell Type: Saccharomyces cerevisiae, Assay Type: Forward gene mutation, Assay Code: YEF+, Evaluation Type: Evaluation A (Pre-1980)) was “active; positive”. For the same compound, the mutagenic call (Species/Cell Type: Saccharomyces cerevisiae, Assay Type: Mitotic recombination or gene conversion, Assay Code: YEC+, Evaluation Type: Evaluation A (Pre-1980)) was “active; positive” and the mutagenic call (Species/Cell Type: Saccharomyces cerevisiae, Assay Type: Mitotic recombination or gene conversion, Assay Code: YEH+, Evaluation Type: Evaluation A (Pre-1980)) was “active; positive”.

`CCN(CC)CCNc1ccc(COC(=O)c2ccco2)c2sc3ccccc3c(=O)c12` was tested, and the mutagenic call [7] was “active; positive”.

For `O=[N+]([O-])c1cccc2cc[nH]c12`, the mutagenic call [7] was “active; positive”.

With `CC(=O)OCN(Cc1ccccc1)N=O` the mutagenic call [3] was “no conclusion”.

In the case of `[CH3][Hg][Cl]`, the mutagenic call [1] is reported as “active; positive”, the mutagenic call (Species/Cell Type: Human lymphocytes, Assay Type: Sister-chromatid exchange (SCE) in vitro, Assay Code: SCL+, Evaluation Type: Evaluation B (Post-1980)) is reported as “active; positive” and the mutagenic call (Species/Cell Type: Human, Assay Type: Sister-chromatid exchange (SCE) in vitro, Assay Code: SC1+, Evaluation Type: Evaluation B (Post-1980)) is reported as “active; positive”. For the same compound, the mutagenic call (Species/Cell Type: Nonhuman, Assay Type: Sister-chromatid exchange (SCE) in vivo, Assay Code: SC3T, Evaluation Type: Evaluation B (Post-1980)) was “no conclusion” and the mutagenic call (Species/Cell Type: Rodents, Sex: Male, Assay Type: Dominant lethal test, Assay Code: DLT-, Evaluation Type: Evaluation A (Pre-1980)) was “inactive; negative”.

With `N=NN` the mutagenic call [8] was “active; positive”.

In the case of `[Cl][Bi]([Cl])[Cl]`, the mutagenic call [9] is reported as “inactive; negative”.

In the case of `CC(=O)O/C=C/Cc1cccc2c1OCO2`, the mutagenic call [3] is reported as “no conclusion”.

For `[O-][Cl+]O`, the mutagenic call (Species/Cell Type: Mammalian polychromatic erythrocytes, Assay Type: Micronucleus test, chromosome aberrations, Assay Code: MNTT, Evaluation Type: Evaluation B (Post-1980)) was “no conclusion”.

In the case of `CN(C)c1ccc(N=Nc2ccc3nc4ccc(N)cc4[n+](-c4ccccc4)c3c2)cc1`, the mutagenic call [9] is reported as “inactive; negative”.

With `OCc1ccco1` the mutagenic call (Species/Cell Type: Human lymphocytes, Assay Type: Sister-chromatid exchange (SCE) in vitro, Assay Code: SCLT, Evaluation Type: Evaluation B (Post-1980)) was “no conclusion” and the mutagenic call (Species/Cell Type: Human, Assay Type: Sister-chromatid exchange (SCE) in vitro, Assay Code: SC1T, Evaluation Type: Evaluation B (Post-1980)) was “no conclusion”.

With `Cc1ccc2nc3c(ccc4ccccc43)c(C)c2c1` the mutagenic call (Species/Cell Type: Escherichia coli polA (W3110 vs P3478), Assay Type: Rec-assay, DNA effects (bacterial DNA repair), Assay Code: RE2T, Evaluation Type: Evaluation A (Pre-1980)) was “no conclusion”, the mutagenic call (Species/Cell Type: Escherichia coli polA (W3119 vs P3478), Assay Type: Rec-assay, DNA effects (bacterial DNA repair), Assay Code: RE1T, Evaluation Type: Evaluation A (Pre-1980)) was “no conclusion” and the mutagenic call [10] was “active; positive”. The mutagenic call [5] was “inactive; negative”, the call (Species/Cell Type: Nonhuman, Assay Code: CCG+L, Evaluation Type: Evaluation A (Pre-1980)) was “active; positive” and the mutagenic call [2] was “inactive; negative”. The mutagenic call [4] was “active; positive”, the mutagenic call (Species/Cell Type: Salmonella typhimurium, Assay Type: Forward and reverse gene mutation, host-mediated assay, Assay Code: HMA-, Evaluation Type: Evaluation A (Pre-1980)) was “inactive; negative” and the mutagenic call [6] was “active; positive”.

`Nc1ccc([N+](=O)[O-])cc1N` was tested, and the mutagenic call [8] was “active; positive”, the mutagenic call [10] was “active; positive” and the mutagenic call (Species/Cell Type: Human diploid fibroblasts, Assay Type: Unscheduled DNA synthesis (UDS) in vitro, DNA effects, Assay Code: UDHT, Evaluation Type: Evaluation A (Pre-1980)) was “no conclusion”. For the same compound, the mutagenic call (Species/Cell Type: Mammalian polychromatic erythrocytes, Assay Type: Micronucleus test, chromosome aberrations, Assay Code: MNTT, Evaluation Type: Evaluation A (Pre-1980)) was “no conclusion”, the mutagenic call (Species/Cell Type: Mouse (C3H/10T1/2) cells, Assay Type: Cell transformation, Assay Code: CTH+, Evaluation Type: Evaluation A (Pre-1980)) was “active; positive” and the mutagenic call (Species/Cell Type: Mouse, Sex: Male, Assay Type: Sperm morphology, Assay Code: SPI-, Evaluation Type: Evaluation A (Pre-1980)) was “inactive; negative”. The mutagenic call (Species/Cell Type: Neurospora crassa, Assay Type: Aneuploidy, chromosome aberrations, Assay Code: NEN-, Evaluation Type: Evaluation A (Pre-1980)) was “inactive; negative”, the mutagenic call (Species/Cell Type: Nonhuman, Assay Type: Chromosome aberrations in vitro, Assay Code: CY&+D, Dose Response: With dose response, Evaluation Type: Evaluation A (Pre-1980)) was “active; positive” and the call (Species/Cell Type: Nonhuman, Assay Code: CCG-, Evaluation Type: Evaluation A (Pre-1980)) was “inactive; negative”. The mutagenic call (Species/Cell Type: Nonhuman, Assay Type: Sister-chromatid exchange (SCE) in vitro, Assay Code: SC2+D, Dose Response: With dose response, Evaluation Type: Evaluation A (Pre-1980)) was “active; positive”, the mutagenic call (Species/Cell Type: Nonhuman, Sex: Male, Assay Type: Sister-chromatid exchange (SCE) in vivo, Assay Code: SC3TM, Evaluation Type: Evaluation B (Post-1980)) was “no conclusion” and the mutagenic call (Species/Cell Type: Rodents, Sex: Male, Assay Type: Dominant lethal test, Assay Code: DLTT, Evaluation Type: Evaluation A (Pre-1980)) was “no conclusion”. The mutagenic call (Species/Cell Type: Saccharomyces cerevisiae, Assay Type: Reverse gene mutation, Assay Code: YER-, Evaluation Type: Evaluation A (Pre-1980)) was “inactive; negative”, the mutagenic call [7] was “active; positive” and the mutagenic call (Species/Cell Type: Salmonella typhimurium, Assay Type: Forward and reverse gene mutation, body fluid assay, Assay Code: BFU+, Evaluation Type: Evaluation A (Pre-1980)) was “active; positive”. The mutagenic call [6] was “active; positive”.

With `COc1ccccc1[N+](=O)[O-]` the mutagenic call [3] was “no conclusion”.

`O=[N+]([O-])c1c(O)ccc2ccccc12` was tested, and the mutagenic call [7] was “active; positive”.

`CC(=O)ON(C(C)=O)c1ccc(-c2ccccc2)cc1` was tested, and the mutagenic call (Species/Cell Type: Human diploid fibroblasts, Assay Type: Unscheduled DNA synthesis (UDS) in vitro, DNA effects, Assay Code: UDH+, Evaluation Type: Evaluation A (Pre-1980)) was “active; positive” and the mutagenic call (Species/Cell Type: Nonhuman, Assay Type: Sister-chromatid exchange (SCE) in vitro, Assay Code: SC2+, Evaluation Type: Evaluation B (Post-1980)) was “active; positive”.

For `Cc1c(N)c(=O)n(-c2ccccc2)n1C`, the mutagenic call (Species/Cell Type: Salmonella typhimurium (one or more of the five standard strains: TA98, TA100, TA1535, TA1537, and TA1538), Assay Type: Histidine reverse gene mutation, Ames assay, Assay Code: SAL-, Evaluation Type: Evaluation A (Pre-1980)) was “inactive; negative”.

For `C=CC(=O)c1ccc2c(c1)OCO2`, the mutagenic call [3] was “no conclusion”.

For `O=[Te](=O)(O)O`, the mutagenic call [1] was “active; positive” and the mutagenic call [9] was “inactive; negative”.

For `CS(=O)(=O)OC[C@@H](O)[C@@H](O)[C@H](O)[C@H](O)COS(C)(=O)=O`, the mutagenic call [8] was “active; positive”.
